The source of these data is ChEMBL document CHEMBL1150976, “The selectivity of protein kinase inhibitors: a further update” (Biochem J, 2007).

Assay [1] concerns the target Homeodomain-interacting protein kinase 2 (Homo sapiens) (UniProt Q9H2X6). Briefly: Percentage HIPK2 activity remaining in the presence of 3uM inhibitor.
For assay [2], the target named is Mitogen-activated protein kinase 11 (Homo sapiens) (UniProt Q15759). The assay can be described thus: Percentage p38beta activity remaining in the presence of 3uM inhibitor.
Mitogen-activated protein kinase 11 (Homo sapiens), sequence (Q15759 whole entry): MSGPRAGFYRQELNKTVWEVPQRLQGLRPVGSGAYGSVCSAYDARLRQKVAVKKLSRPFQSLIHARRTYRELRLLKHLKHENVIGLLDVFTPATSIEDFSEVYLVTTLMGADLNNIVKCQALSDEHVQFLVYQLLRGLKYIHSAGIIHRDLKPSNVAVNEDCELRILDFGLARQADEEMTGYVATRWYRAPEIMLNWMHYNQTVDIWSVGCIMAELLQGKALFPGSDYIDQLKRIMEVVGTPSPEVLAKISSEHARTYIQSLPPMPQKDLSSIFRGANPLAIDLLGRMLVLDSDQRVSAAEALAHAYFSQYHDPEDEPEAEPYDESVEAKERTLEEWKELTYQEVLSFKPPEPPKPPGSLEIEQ
The species named for the next assay is Homo sapiens. The assay can be described thus: Percentage PHK activity remaining in the presence of 3uM inhibitor.
The target in assay [3] is MAP kinase-activated protein kinase 2 (Homo sapiens) (UniProt P49137). Briefly: Percentage MAPKAPK2 activity remaining in the presence of 3uM inhibitor.
MAP kinase-activated protein kinase 2 (Homo sapiens), sequence (P49137 whole entry, looked up): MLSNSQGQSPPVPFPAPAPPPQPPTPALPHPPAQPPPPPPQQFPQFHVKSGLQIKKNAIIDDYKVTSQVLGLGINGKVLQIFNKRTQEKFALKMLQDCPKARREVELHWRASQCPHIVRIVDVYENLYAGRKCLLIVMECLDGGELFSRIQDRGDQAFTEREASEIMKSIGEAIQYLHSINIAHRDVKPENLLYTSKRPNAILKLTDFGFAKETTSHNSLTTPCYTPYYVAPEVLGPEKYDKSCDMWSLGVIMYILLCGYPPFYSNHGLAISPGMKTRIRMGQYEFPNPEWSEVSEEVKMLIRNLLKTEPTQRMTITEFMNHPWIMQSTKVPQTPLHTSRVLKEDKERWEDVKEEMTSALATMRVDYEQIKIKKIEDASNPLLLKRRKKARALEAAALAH
The target of assay [4] is T1, Eukaryotic elongation factor 2 kinase (Homo sapiens) (UniProt O00418).
T1 sequence (whole entry): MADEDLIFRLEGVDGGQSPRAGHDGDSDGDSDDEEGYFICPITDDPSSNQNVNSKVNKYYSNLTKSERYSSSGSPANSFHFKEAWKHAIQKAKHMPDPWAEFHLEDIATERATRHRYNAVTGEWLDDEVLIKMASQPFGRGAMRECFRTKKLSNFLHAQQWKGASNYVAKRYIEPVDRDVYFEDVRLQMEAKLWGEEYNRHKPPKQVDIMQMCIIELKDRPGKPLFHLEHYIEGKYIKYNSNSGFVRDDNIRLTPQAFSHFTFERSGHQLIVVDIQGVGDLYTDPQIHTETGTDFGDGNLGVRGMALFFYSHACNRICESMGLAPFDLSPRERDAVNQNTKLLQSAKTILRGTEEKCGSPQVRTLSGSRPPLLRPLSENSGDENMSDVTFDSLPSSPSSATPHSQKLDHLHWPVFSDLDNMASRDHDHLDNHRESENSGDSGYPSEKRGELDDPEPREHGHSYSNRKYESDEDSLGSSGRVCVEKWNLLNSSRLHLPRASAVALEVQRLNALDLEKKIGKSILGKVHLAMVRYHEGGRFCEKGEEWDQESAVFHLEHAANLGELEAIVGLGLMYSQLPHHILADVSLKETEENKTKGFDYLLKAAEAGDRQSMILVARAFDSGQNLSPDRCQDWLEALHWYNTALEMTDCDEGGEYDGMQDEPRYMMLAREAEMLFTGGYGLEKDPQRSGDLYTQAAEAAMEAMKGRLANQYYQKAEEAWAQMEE
The assay can be described thus: Percentage EF2K activity remaining in the presence of 3uM inhibitor.

For assay [5], the target named is T2, Serine/threonine-protein kinase BRSK2 (Homo sapiens) (UniProt Q8IWQ3).
T2 sequence (whole entry): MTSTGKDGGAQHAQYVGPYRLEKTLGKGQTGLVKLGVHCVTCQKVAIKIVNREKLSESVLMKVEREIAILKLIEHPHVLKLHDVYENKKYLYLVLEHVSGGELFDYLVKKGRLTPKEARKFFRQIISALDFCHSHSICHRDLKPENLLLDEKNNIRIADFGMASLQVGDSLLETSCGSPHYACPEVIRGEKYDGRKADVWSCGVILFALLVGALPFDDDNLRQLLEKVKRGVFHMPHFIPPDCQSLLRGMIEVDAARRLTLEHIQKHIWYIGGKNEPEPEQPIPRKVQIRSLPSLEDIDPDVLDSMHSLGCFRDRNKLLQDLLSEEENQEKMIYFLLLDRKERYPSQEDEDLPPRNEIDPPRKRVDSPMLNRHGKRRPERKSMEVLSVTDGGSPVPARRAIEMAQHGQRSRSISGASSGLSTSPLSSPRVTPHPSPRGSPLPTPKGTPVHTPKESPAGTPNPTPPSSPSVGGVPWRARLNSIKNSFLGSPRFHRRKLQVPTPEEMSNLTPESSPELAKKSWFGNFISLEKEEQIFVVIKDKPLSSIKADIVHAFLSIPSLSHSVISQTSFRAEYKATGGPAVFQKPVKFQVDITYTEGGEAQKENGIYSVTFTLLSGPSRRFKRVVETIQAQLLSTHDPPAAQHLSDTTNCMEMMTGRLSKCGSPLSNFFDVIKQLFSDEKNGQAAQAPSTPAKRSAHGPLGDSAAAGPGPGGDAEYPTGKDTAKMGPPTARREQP
Briefly: Percentage BRSK2 activity remaining in the presence of 2uM inhibitor.

Assay [6] has as its target Proto-oncogene tyrosine-protein kinase LCK (Mus musculus) (UniProt P06240). Briefly: Percentage Lck activity remaining in the presence of 2uM inhibitor.
In assay [7] the target is Dual specificity tyrosine-phosphorylation-regulated kinase 1A (Homo sapiens) (UniProt Q13627). Briefly: Percentage DYRK1A activity remaining in the presence of 2uM inhibitor. To be noted: filed as antagonist.
The target of assay [8] is T3, 3-phosphoinositide-dependent protein kinase 1 (Homo sapiens) (UniProt O15530).
T3 sequence (whole entry): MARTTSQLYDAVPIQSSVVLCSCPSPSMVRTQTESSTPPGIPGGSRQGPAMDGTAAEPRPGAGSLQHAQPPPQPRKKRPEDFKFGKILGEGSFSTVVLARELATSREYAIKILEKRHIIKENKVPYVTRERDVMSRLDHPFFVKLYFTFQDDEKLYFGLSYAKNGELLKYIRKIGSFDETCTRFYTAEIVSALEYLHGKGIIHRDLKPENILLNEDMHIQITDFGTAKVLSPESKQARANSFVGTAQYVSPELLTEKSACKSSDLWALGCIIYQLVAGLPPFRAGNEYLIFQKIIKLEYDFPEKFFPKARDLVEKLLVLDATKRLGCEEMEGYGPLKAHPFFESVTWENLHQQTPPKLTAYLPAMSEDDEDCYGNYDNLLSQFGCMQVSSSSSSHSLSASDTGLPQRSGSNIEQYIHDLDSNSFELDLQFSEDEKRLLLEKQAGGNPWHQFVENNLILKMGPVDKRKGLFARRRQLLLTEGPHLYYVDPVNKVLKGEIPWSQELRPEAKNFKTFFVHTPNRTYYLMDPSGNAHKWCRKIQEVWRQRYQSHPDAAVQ
Briefly: Percentage PDK1 activity remaining in the presence of 25uM inhibitor.

Assay [9] has as its target Protein kinase C alpha type (Homo sapiens) (UniProt P17252). The assay can be described thus: Percentage PKCalpha activity remaining in the presence of 25uM inhibitor.

Proto-oncogene tyrosine-protein kinase LCK (Mus musculus), sequence (P06240 2-509 limits assumed): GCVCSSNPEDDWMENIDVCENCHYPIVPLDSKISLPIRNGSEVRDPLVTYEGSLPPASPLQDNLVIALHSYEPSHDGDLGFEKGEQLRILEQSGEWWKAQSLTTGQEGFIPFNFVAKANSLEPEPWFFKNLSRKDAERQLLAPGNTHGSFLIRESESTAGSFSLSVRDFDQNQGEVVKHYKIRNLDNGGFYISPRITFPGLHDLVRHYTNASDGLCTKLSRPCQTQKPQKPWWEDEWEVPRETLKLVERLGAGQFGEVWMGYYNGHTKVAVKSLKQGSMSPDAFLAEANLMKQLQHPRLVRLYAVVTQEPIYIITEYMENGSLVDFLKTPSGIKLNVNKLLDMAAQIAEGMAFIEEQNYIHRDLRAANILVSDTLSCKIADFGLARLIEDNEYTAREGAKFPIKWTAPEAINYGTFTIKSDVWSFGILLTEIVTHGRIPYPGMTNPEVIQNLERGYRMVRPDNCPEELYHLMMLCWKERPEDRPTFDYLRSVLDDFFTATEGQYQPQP
Homeodomain-interacting protein kinase 2 (Homo sapiens), sequence (Q9H2X6 whole entry, looked up): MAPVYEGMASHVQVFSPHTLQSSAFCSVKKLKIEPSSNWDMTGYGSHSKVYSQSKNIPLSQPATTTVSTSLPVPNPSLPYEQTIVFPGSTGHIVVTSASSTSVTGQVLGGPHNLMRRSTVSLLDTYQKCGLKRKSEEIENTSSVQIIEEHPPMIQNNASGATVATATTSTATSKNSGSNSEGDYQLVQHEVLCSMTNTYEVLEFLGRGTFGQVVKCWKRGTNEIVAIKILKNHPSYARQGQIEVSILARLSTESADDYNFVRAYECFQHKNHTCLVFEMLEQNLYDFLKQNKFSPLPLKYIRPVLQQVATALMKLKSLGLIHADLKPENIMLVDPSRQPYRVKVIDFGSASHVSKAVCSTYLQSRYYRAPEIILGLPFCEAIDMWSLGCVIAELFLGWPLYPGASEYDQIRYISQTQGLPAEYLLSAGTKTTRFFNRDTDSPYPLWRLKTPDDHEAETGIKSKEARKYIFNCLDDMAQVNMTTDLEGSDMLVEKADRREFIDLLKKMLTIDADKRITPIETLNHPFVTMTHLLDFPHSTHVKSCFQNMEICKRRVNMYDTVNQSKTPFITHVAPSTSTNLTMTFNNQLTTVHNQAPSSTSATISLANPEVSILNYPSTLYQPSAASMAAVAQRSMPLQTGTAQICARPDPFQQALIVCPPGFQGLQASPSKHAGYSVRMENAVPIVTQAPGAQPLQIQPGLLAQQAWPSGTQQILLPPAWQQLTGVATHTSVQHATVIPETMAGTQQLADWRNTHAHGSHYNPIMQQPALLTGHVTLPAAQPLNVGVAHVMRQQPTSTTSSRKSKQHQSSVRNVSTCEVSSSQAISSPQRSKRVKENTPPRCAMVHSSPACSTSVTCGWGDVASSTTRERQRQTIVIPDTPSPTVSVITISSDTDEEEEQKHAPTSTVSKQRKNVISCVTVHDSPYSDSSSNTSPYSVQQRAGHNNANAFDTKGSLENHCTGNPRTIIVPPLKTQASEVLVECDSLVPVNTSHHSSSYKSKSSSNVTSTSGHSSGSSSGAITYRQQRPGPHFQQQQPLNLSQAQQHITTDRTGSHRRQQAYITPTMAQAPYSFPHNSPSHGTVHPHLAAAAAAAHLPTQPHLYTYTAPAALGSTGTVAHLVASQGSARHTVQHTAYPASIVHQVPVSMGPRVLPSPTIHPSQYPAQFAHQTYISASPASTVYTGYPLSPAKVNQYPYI

Consider `Cc1ccc(-c2c(C(=O)CF)n(CCCO)c3ncnc(N)c23)cc1`, for which the Activity came out at 79% in assay [1]; 85% in assay [2]; 93% in the assay listed under Homo sapiens; 94% in assay [3]; 97% in [4].

Turning to `Cn1cc(C2=C(c3ccc(Cl)cc3Cl)C(=O)NC2=O)c2ccccc21`, the values for the Activity in assay [5], in [6] and in [7] were 83%, 77% and 8%, respectively.

Consider `NCCNS(=O)(=O)c1ccc(Cl)c2ccncc12`, for which the Activity in assay [8] amounted to 83%; in assay [9], 86%.
